Measured values as given in patent US9289490B2, “Combinations and uses thereof” (MORPHOSYS AG, priority 2010, dated 2016).
“And” between values parts separate entries of the source, which are not always exact repeats. Identical values can stand only once.

What was measured:
NCI-H929 cells = assay: ADCC with human PBMCs, flow cytometry (CalceinAM/PI)
Experimental: PBMC's were isolated by density gradient centrifugation of freshly isolated human blood. Isolated blood from different donors were layered on a defined volume of Biocoll (Biochrome AG; CAT No.:L6115; LOT No.:1050T) in a Falcon tube and centrifuged at 380 g. The PBMCs were isolated and supplemented with RPMI medium.
Cell suspensions were further incubated for 4 h at 37° C. To detect dead AMO-1 cells, cell suspensions were challenged with propidium iodide (PI) and subsequently analyzed in flow cytometry. Target cells were separated via gating of CalceinAM positive cell populations, and cells killed via ADCC were quantified.
Single and combination doses of 5 μM LEN and 15 μg/ml of MOR03207 and 0.2 or 0.07 μg/ml MOR202 were used.
Single and combination doses of 5 μM LEN and 15 μg/ml of MOR03207 and 0.2* or 0.07 μg/m MOR202 were used.

RAMOS cells = assay: RAMOS non-Hodgkin tumor SCID mouse survival model, MOR202 and lenalidomide; assay type: in vivo, SCID mice
Experimental: Sixty-eight female SCID mice were pre-treated with Cyclophosphamide (75 mg/kg, i.p., twice daily) for two days prior to RAMOS cell inoculation (Day −5 and −4). On the day of inoculation (Day −3), all mice were inoculated with 1×10^6 RAMOS cells each intravenously into the tail vein. Sixty-four of the mice were randomised by body weight into eight groups of eight.
The study continued for 98 days and the measured endpoint was survival.

`Nc1cccc2c1CN(C1CCC(=O)NC1=O)C2=O` (centres unmarked) [LEN, lenalidomide] was tested, and the “Enhancement of MOR202 activity by LEN (in words)” value (NCI-H929 cells; NCI-H929 cells, Fractional Product Concept and Chou et al., 6 out of 6 experiments each) was “synergistically enhanced MOR202 activity”, the “% dead cells (raw data, Table 7a), Exp. 2 and 3” value (NCI-H929 cells; PBMCs and NCI-H929 cells treated with LEN before MOR202, LEN 5 μM, MOR202 0.07 μg/ml, MOR03207 15 μg/ml) was 39.92 % dead cells and 41.92 % dead cells and the “% dead cells (raw data, Table 7a), Exp. 1” value (NCI-H929 cells; PBMCs and NCI-H929 cells treated with LEN before MOR202, LEN 5 μM, MOR202 0.2 μg/ml (*), MOR03207 15 μg/ml) was 38.65 % dead cells. The “Normalized specific killing, AVERAGE (Table 7b)” value (NCI-H929 cells; PBMCs and NCI-H929 cells treated with LEN, LEN 5 μM, MOR202 0.2 or 0.07 μg/ml, average of 3 experiments) was 0.63, the “% dead cells (raw data, Table 8a), Exp. 2 and 3” value (NCI-H929 cells; only effector cells treated with LEN before MOR202, LEN 5 μM, MOR202 0.07 μg/ml, MOR03207 15 μg/ml) was 26.27 % dead cells and 25.72 % dead cells and the “% dead cells (raw data, Table 8a), Exp. 1” value (NCI-H929 cells; only effector cells treated with LEN before MOR202, LEN 5 μM, MOR202 0.2 μg/ml (*), MOR03207 15 μg/ml) was 17.50 % dead cells. The “Normalized specific killing, AVERAGE (Table 8b)” value (NCI-H929 cells; only effector cells treated with LEN, LEN 5 μM, MOR202 0.2 or 0.07 μg/ml, average of 3 experiments) was 0.02, the “Number of mice alive at study termination (day 98)” value (RAMOS cells; LEN 100 mg/kg (Table 14) p.o., MOR202 1 mg/kg i.v.) was 0/7 and the “Day of death (post-inoculation) Mean” value (RAMOS cells; LEN 100 mg/kg (Table 14) p.o., MOR202 1 mg/kg i.v. twice weekly, study 98 days) was 21.4 days. The “% ILS (based on median death day)” value (RAMOS cells; LEN 100 mg/kg (Table 14) p.o., MOR202 1 mg/kg i.v., vs vehicle control) was 10% and the “Day of death (post-inoculation) Median” value (RAMOS cells; LEN 100 mg/kg (Table 14; Table 13: 50 mg/kg) p.o. once daily, MOR202 1 mg/kg i.v. twice weekly, study 98 days) was 22 days.
